Results published in patent US6034134A, “1-Amino-alkylcyclohexane NMDA receptor antagonists” (Merz + Co. GmbH & Co., priority 1998, dated 2000).
Like-named read-outs stand apart in the source and are kept apart here.

How the values were obtained:
[1] = Maximal electroshock (MES)-induced convulsions in mice; type: in vivo; conditions: for ED50: Mus musculus, ip, 0.5 h, read-out: MES ED50
Description: NMR female mice (18-28 g) housed 5 per cage were used for the maximal electroshock (MES) and motor impairment tests. […] All compounds were dissolved in 0.9% saline.
The MES test was performed together with tests for myorelaxant action (traction reflex) and motor coordination (rotarod). For the traction reflex test mice were placed with their forepaws on a horizontal rod and were required to place all 4 paws on the wire within 10 seconds. To test ataxia (motor coordination) mice were placed on rotarod (5 rpm) and were required to remain on the rod for 1 minute. […] These tests were followed by MES (100 Hz, 0.5 second shock duration, 50 mA shock intensity, 0.9 ms impulse duration, Ugo Basile) applied through corneal electrodes. The presence of tonic convulsions was scored (tonic extension of hind paws with minimum angle to the body of 90°). The aim was to obtain ED50 s for all parameters scored (anticonvulsive activity and motor side effects) with use of the Litchfield Wilcoxon test for quantal dose responses. Division of the ED50 for side effects (ataxia or myorelaxation) by the ED50 for antagonism of electroshock convulsions was used as a therapeutic index (TI). […]

NMDA receptor = experiment: [3H]-(+)-MK-801 binding to rat cortical membranes; conditions: for Ki: read-out: MK-801 Ki, Table 9, Cheng-Prusoff with Kd for MK-801 of […]; for IC50: read-out: [3H] MK-801 IC50, Table 7, footnote calls the values Ki
Description: Male Sprague-Dawley rats (200-250 g) were decapitated and their brains were removed rapidly. The cortex was dissected and homogenized in 20 volumes of ice-cold 0.32 M sucrose using a glass-Teflon homogenizer. The homogenate was centrifuged at 1000 ×g for 10 minutes. The pellet was discarded and the supernatant centrifuged at 20,000 ×g for 20 minutes. The resulting pellet was re-suspended in 20 volumes of distilled water and centrifuged for 20 minutes at 8000 ×g. Then the supernatant and the buffy coat were centrifuged three times (48,000 ×g for 20 minutes) in the presence of 50 mM Tris-HCl, pH 8.0. All centrifugation steps were carried out at 4° C. After resuspension in 5 volumes of 50 mM Tris-HCl, pH 8.0 the membrane suspension was frozen rapidly at -80° C. On the day of assay the membranes were thawed and washed four times by resuspension in 50 mM Tris-HCl, pH 8.0 and centrifugation at 48,000 ×g for 20 minutes. The final pellet was suspended in assay buffer. The amount of protein in the final membrane preparation was determined according to the method of Lowry with some modifications. The final protein concentration used for our studies was between 250-500 μg/ml.
Membranes were re-suspended and incubated in 50 mM Tris-HCl, pH 8.0. […] Incubations were terminated using a Millipore filter system. The samples were rinsed three times with 2.5 ml ice cold assay buffer over glass fiber filters obtained from Schleicher & Schuell under a constant vacuum. Filtration was performed as rapidly as possible. Following separation and rinse, the filters were placed into scintillation liquid (5 ml; Ultima Gold) and radio activity retained on the filters was determined with a conventional liquid scintillation counter (Hewlett Packard, Liquid Scintillation Analyser).
(§1) IC50 s in patch clamp, excitotoxicity, and binding studies were calculated according to the four parameter logistic equation using the Grafit computer program (Erithacus Software, England). Ki value for binding studies were then determined according to Cheng and Prusoff. Binding values presented are means±SEM of 3-5 determinations (each performed in duplicate). […] Pearson product moment correlation analysis (Sigma Stat, Jandel Scientific) was used to compare in vitro potencies and in vivo anticonvulsant activity.

[2] = Description: All animals were kept with water and food ad libitum under a 12 hour light-dark cycle (light on at 6 a.m.) and at a controlled temperature (20±0.5° C.). All e experiments were performed between 10 a.m. and 5 p.m. Tested agents were injected 30 min. i.p. before the induction of convulsions if not stated otherwise (see below). All compounds were dissolved in 0.9% saline.
[3] = Rotarod test (motor coordination, ataxia) in mice, therapeutic index versus MES; type: in vivo; conditions: ED50 for rotarod failure divided by ED50 for MES; for selectivity ratio at 0.5 h: mouse, in vivo, ip, read-out: TI Rot.
Description: All compounds were dissolved in 0.9% saline.
The MES test was performed together with tests for myorelaxant action (traction reflex) and motor coordination (rotarod). For the traction reflex test mice were placed with their forepaws on a horizontal rod and were required to place all 4 paws on the wire within 10 seconds. To test ataxia (motor coordination) mice were placed on rotarod (5 rpm) and were required to remain on the rod for 1 minute. […] These tests were followed by MES (100 Hz, 0.5 second shock duration, 50 mA shock intensity, 0.9 ms impulse duration, Ugo Basile) applied through corneal electrodes. The presence of tonic convulsions was scored (tonic extension of hind paws with minimum angle to the body of 90°). The aim was to obtain ED50 s for all parameters scored (anticonvulsive activity and motor side effects) with use of the Litchfield Wilcoxon test for quantal dose responses. Division of the ED50 for side effects (ataxia or myorelaxation) by the ED50 for antagonism of electroshock convulsions was used as a therapeutic index (TI).
as §1, with “Prusoff.” for “Prusoff. Binding values presented are means±SEM of 3-5 determinations (each performed in duplicate).”

[4] = Table 7, mice, i.p., 30 min before
[5] = Table 8, mice, i.p., 95% confidence limits in parentheses

SMILES | ED50 [1, 4] [mg/kg] | ED50 [1, 5] [mg/kg] | Ki (NMDA receptor) [µM] | IC50 (NMDA receptor) [µM] | Min Lethality ([2]; mouse, in vivo, ip) [mg/kg] | selectivity ratio at 0.5 h [3] | Min Lethality ([2]; i.p., minimal lethal dose) [mg/kg] | ED50 [1] [mg/kg] | MES ED50 ([1]; Table 8, mice, i.p., 95% confidence limits in parentheses, 30 min) | TI Rot. ([3]; 30 min)
CCCC1(C)CCCC(C)(N)C1 (stereo not shown) [Mrz 2/617] | 54.9 | 54.9 | 38 | 51.8 | > 50 | 1.1 | – | – | – | –
CCCC1(C)CC(C)(C)CC(C)(N)C1 (stereo not shown) [Mrz 2/614] | 23.5 | 23.5 | 13.6 | 13.6 | > 50 | 1.6 | – | – | – | –
CC(C)(N)CC1CC(C)(C)CC(C)(C)C1 [Mrz 2/645] | 65.6 | 65.6 | 60.2 | 85.1 | – | 0.6 | – | – | – | –
CCC[C@]1(C)C[C@@H](C)C[C@@](C)(N)C1 (relative stereo) [Mrz 2/619] | 44.6 | 44.6 | 57.8 | 72.1 | > 50 | – | – | – | – | –
CCC[C@@H]1CC(C)(C)C[C@](C)(N)C1 (relative stereo) [Mrz 2/634] | > 30 | > 30 | 13.4 | 15.5 | – | – | > 30 | – | – | –
C[C@@H]1CC(C)(C)C[C@@](C)(N)C1 (relative stereo) [Mrz 2/607] | 22.9 | 22.9 | 7.74 | 8.2 | 50 | – | – | – | – | –
CCC[C@@]1(C)C[C@H](C)C[C@@](C)(N)C1 (relative stereo) [Mrz 2/618] | 24 | 24 | 24 | 32.7 | > 50 | – | – | – | – | –
C[C@H]1CCC[C@@](C)(N)C1 (relative stereo) [Mrz 2/631] | 30 | 30 | 65.3 | 69.7 | – | – | > 30 | – | – | –
CC[C@H]1CC(C)(C)C[C@@](C)(N)C1 (relative stereo) [Mrz 2/632] | 11 | 11 | 2.88 | 2 | > 30 | – | – | – | – | –
CC1(N)CCCCC1 [Mrz 2/641] | > 50 | > 50 | 143 | 184 | – | – | > 50 | – | – | –
CC[C@@]1(C)C[C@H](C)C[C@@](C)(N)C1 (relative stereo) [Mrz 2/622] | 21 | 21 | 13.3 | 15 | 50 | – | – | – | – | –
CCNC1(C)CC(C)(C)CC(C)(C)C1 [Mrz 2/639, N-ethyl-1-amino-1,3,3,5,5-pentamethylcyclohexane] | 5.5 | 5.87 | 4.17 | 3.3 | – | – | 30 | – | – | –
CC[C@@H]1CC(C)(C)C[C@@](C)(N)C1 (relative stereo) [Mrz 2/633] | 8.78 | 8.78 | 5.18 | 6.8 | 108 | – | – | – | – | –
CC1(C)CC(CN)CC(C)(C)C1.Cl [Mrz 2/580, 3,3,5,5-tetramethylcyclohexylmethylamine hydrochloride] | 27.3 | 27.3 | 17.8 | 15.9 | – | – | 50 | – | – | –
CCC1(C)CC(C)(C)CC(C)(N)C1 (stereo not shown) [Mrz 2/615, 1-amino-1,3,5,5-tetramethyl-3-ethylcyclohexane] | 6.1 | 6.1 | 2.42 | 2.5 | – | – | > 50 | – | – | –
CC[C@H]1CCC[C@@](C)(N)C1 (relative stereo) [Mrz 2/630] | > 30 | > 30 | 49.1 | 44.3 | – | – | > 30 | – | – | –
CNC1(C)CC(C)(C)CC(C)(C)C1.Cl [Mrz 2/640, N,1,3,3,5,5-hexamethylcyclohexanamine hydrochloride] | 8.2 | 8.18 | 4.83 | 3.7 | – | – | 108 | – | – | –
CC[C@]1(C)C[C@@H](C)C[C@@](C)(N)C1 (relative stereo) [Mrz 2/624] | 47.2 | 47.2 | 15.1 | 15.4 | 100 | – | – | – | – | –
CN(C)C1(C)CC(C)(C)CC(C)(C)C1 [Mrz 2/642] | – | – | 12.7 | 10.2 | – | – | – | 8.04 | 8.04 (5.1-12.7) mg/kg | 5.3
CCC[C@H]1CCC[C@@](C)(N)C1 (relative stereo) [Mrz 2/628] | 73.2 | 73.2 | 49.2 | 35.6 | > 60 | – | – | – | – | –
CC[C@@H]1CCC[C@@](C)(N)C1 (relative stereo) [Mrz 2/629] | 58.5 | 58.5 | 49.3 | 39.4 | 100 | – | – | – | – | –
CCC1(N)CC(C)(C)CC(C)(C)C1 [Mrz 2/600, 1-amino-1-ethyl-3,3,5,5-tetramethylcyclohexane] | 22.6 | 22.6 | 2.28 | 2.4 | – | – | 50 | – | – | –
C[C@@H]1CCC[C@@](C)(N)C1 (relative stereo) [Mrz 2/625] | 130 | 130 | 52.6 | 46.8 | > 70 | – | – | – | – | –
CC1(C)CC(N)CC(C)(C)C1 [Mrz 2/557] | 43.9 | 43.9 | 19.9 | 17.6 | > 70 | – | – | – | – | –
CC1(C)CC(CCN)CC(C)(C)C1 [Mrz 2/644] | 53 | 53 | 4.84 | 3.8 | > 35 | – | – | – | – | –
CCC[C@@H]1CC(C)(C)C[C@@](C)(N)C1 (relative stereo) [Mrz 2/635] | 31.6 | 31.6 | 15 | 7.8 | > 50 | – | – | – | – | –
CCC[C@@H]1CCC[C@@](C)(N)C1 (relative stereo) [Mrz 2/627] | 43.9 | 43.9 | 71 | 70.3 | 60 | – | – | – | – | –
CCC1(CC)CC(C)(C)CC(C)(N)C1 (stereo not shown) [Mrz 2/623, 1-amino-1,5,5-trimethyl-3,3-diethylcyclohexane] | 13.1 | 13.1 | 3.16 | 3.3 | – | – | > 30 | – | – | –
